System: antibody 2D12.5
Test: competitive immunoassay (ELISA) of metal-DOTA complexes against immobilized Y-DOTA
Format: binding, murine
Conditions: 37° C.; DOTA analog [S]-2-(p-nitrobenzyl)-DOTA
Excerpt: FIG. 13 is graphical display showing the relative binding of metal-DOTA complexes to antibody 2D12.5. A representative set of competitive binding curves obtained from ELISA experiments described in Example 3 below. Error bars (representing the standard error of the mean) are shown, but are generally smaller than the data points.
Elements plotted in the order Sc (open circle), Lu, Yb, Tm, Er, Ho, Y (open diamond), Dy, Tb, Gd, Eu, Sm, Nd, Pr, Ce, La. ΔΔG values relative to Y-DOTA, set at 0. Error bars represent standard error of the mean.
To determine the metal selectivity of the antibody 2D12.5, a competitive immunoassays was used to measure the binding constants of multiple metal-DOTA complexes relative to Y^3+-DOTA.
We examined the monoclonal antibody 2D12.5, initially developed to bind specifically to Y-DOTA for targeted radiotherapy (see, e.g., Goodwin et al., i Cancer Res. 54: 5937-5946 (1994)), in order to determine the scope of its activity. To assess the metal selectivity of antibody 2D12.5, a competitive immunoassay to measure the binding constants of various metal-DOTA complexes relative to the original Y^3+ complex was developed (FIG. 12). Briefly, 2D12.5 was incubated at 37° C. in the presence of immobilized Y-DOTA and a soluble metal-DOTA competitor. […] Binding was measured by standard methods known to those of skill in the art. […]

SMILES: O=C([O-])CN1CCN(CC(=O)[O-])CCN(CC(=O)[O-])C(Cc2ccc([N+](=O)[O-])cc2)CN(CC(=O)[O-])CC1.[Tb+3] (stereo not shown) [Tb-DOTA]
- binding strength relative to the original Y^3+ complex (in words): strongest binders

Reference: patent US7528235B2, “Multi-functional antibodies” (The Regents of the Univarsity of California, priority 2003, dated 2009)
